Experimental data reported in patent US6287813A, “Antibiotic-based gene regulation system” (Cistronics Cell Technology GmbH, priority 1999, dated 2001).

Assays:
[1] = biological target: T1, PIT/PPIR system (Streptomyces coelicolor, UniProt Q9ADN3); experiment: SEAP reporter assay, CHO-K1 cotransfected with pMF156 (PIT) and pMF172 (PPIR-SEAP); format: cell-based
T1 construct: pMF156/pTWIN in CHO cells, PPIR-SEAP or GFP reporter
T1 sequence (Q9ADN3 1-252): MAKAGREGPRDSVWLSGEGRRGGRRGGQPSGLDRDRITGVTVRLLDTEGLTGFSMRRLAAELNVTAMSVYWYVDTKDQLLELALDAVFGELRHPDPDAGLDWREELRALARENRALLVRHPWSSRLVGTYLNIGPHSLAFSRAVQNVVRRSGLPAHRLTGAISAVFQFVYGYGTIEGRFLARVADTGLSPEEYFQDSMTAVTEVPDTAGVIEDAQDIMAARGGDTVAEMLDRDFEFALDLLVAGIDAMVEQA
Experimental: PIT, the fusion protein of Pip and the VP16 C-terminal transactivation domain of Herpes simplex (Triezenberg et al., 1988, Genes Dev. 2, 718-729) was constructed by amplifying the S. coelicolor Pip from pGemT::Epip4 with oligos:
(§1) Chinese hamster ovary cells (CHO-K1, ATCC: CCL 61), Baby hamster kidney cells (BHK-21, ATCC: CRL-8544), and HeLa cells (ATCC: CRL-7923) as well as stable cell lines CHO-PIT1, CHO-PIT2, CHO-TWIN195, CHO-TWIN1108 and CHO-PIT1-SEAP were cultured as described before (Fussenegger et al., 1998, Nat. Biotechnol. 16,468-472) in the presence of appropriate antibiotics: G418 400 μg/ml; zeocin 100 μg/ml. Optimized CaPO4 protocols were used for high efficiency transient transfection of all cell lines (id). Transient transfected cells were routinely analyzed after 48 h for GFP or SEAP expression using fluorescence microscopy and p-nitrophenolphosphate-based light absorbance timecourse, respectively, as described before (Fussenegger et al., 1998, Nat. Biotechnol. 16, 468-472; Berger et al., 1988, Gene 66, 1-10 b). For construction of stable CHO-PIT and CHO-TWIN cell lines, CHO-K1 was cotransfected either with pMF156 or pTWIN1 and pSV2neo carrying the G418 resistance gene. CHO-PIT1-SEAP was constructed by cotransfection of pMF172 and pZeoSV2 (Invitrogen). For assessment of dose-response characteristics of PPIR -regulated gene expression, CHO-PIT1-SEAP were cultured at cell densities of 150,000/ml for 48 at various PI concentrations. The mixed populations were cloned using FACS-mediated single-cell-sorting (FACStar^Plus; Beckton Dickinson). Gel retardation assay were performed as described (Salah-Bey et al., 1995, supra) using Pip purified from an overproducing strain of E. coli. Pip (0.02 pmol) was titrated with a range of antibiotic concentrations in a reaction volume of 20 μl. Protein solutions were pre-incubated at room temperature for 15 min. in the absence or presence of PI or its derivative quinupristin in a buffer containing 10 mM Tris (pH 7.8), 10 mM MgCl2, 300 mM NaCl, 2 mM DTT and 10% glycerol. An EcoRI-HindII PPTR fragment (0.02 pmol) containing three Pip binding sites (radiolabelled using α-^32 P)dATP was added and incubated for 15 min. To minimize nonspecific protein binding and increase protein stability, 2 μg of poly dIdC and 20 μg BSA were included in the incubation mix. Protein-DNA complexes were separated on 5% polyacrylamide,TBE gels and visualized by autoradiography.
Five different sources of pristinamycin were used: The two therapeutic forms Pyostacin™ and Synercid™, pristinamycin discs, and the single compounds pristinamycin I (PI) and pristinamycin II (PII). Pyostacin™ pills (500 mg) were ground in a mortar and solubilized in DMSO or water at a stock concentration of 50 mg/ml. Synercid™ (RP 59500; Lot Nr. CB06253) was provided by Aventis in injection-ready vials containing 500 mg lyophilized antibiotic which was reconstituted in 5 ml of 5% glucose solution and frozen at -20° C. Individual pristinamycin compounds PI and PII (identical to virginiamycin M1 (VM1); Sigma ref. V2753) were solubilized in DMSO at a concentration of 50 mg/ml and kept at -20° C. Antibiotic discs containing 15 μg pristinamycin or virginiamycin (bioMerieux, ref. 54552; bioMerieux, ref. 54612) were soaked in 1 ml cell culture medium at 4i C for up to 24 h. […] The concentration of individual streptogramin components was calculated based on their fixed 70:30 ratio (w/w; PII/VM1 /dalfopristin: PI/VS1 /quinupristin). […]

[2] = biological target: T1, PIT/PPIR system; experiment: Dose-response of PI-dependent SEAP expression in CHO-PIT1-SEAP; format: cell-based; conditions: 48 h
Experimental: FIG. 2: Dose-response curve for PI-dependent gene expression. The cell line CHO-PIT1-SEAP was grown for 48 h at different PI concentrations (ng/ml). The relative SEAP production is shown over 5 orders of magnitude of PI concentration.
as §1, with “Protein solutions were pre-incubated at room temperature for 15 min. in the absence or presence of PI or its derivative quinupristin in a buffer containing 10 mM Tris (pH 7.8), 10 mM MgCl2, 300 mM NaCl, 2 mM DTT and 10% glycerol. An EcoRI-HindII PPTR fragment (0.02 pmol) containing three Pip binding sites (radiolabelled using α-^32 P)dATP was added and incubated for 15 min. To minimize nonspecific protein binding and increase protein stability, 2 μg of poly dIdC and 20 μg BSA were included in the incubation mix. Protein-DNA complexes were separated on 5% polyacrylamide,TBE gels and visualized by autoradiography.” left out
The levels of PPIR -regulated gene expression could be controlled by varying the concentrations of PI used for induction. This was assessed using a stable CHO cell line (CHO-PIT1-SEAP) which expresses PPIR -SEAP (pMF172) and contains also a constitutive PIT expression vector (pMF156). […]

pristinamycin I [PI] was tested, and the “SEAP readout (slope of the p-nitrophenolphosphate-based light absorbance time courses)” value ([1]; +PI (2 μg/ml), 48 hr post transfection, CHO + pMF156 + pMF172) was 0.03 ± 0.002, the “Downregulation of PIT/PPIR-mediated SEAP expression” value ([1]; CHO-K1, 2 μg/ml) was “effective downregulation” and the “SEAP Production (%)” value ([1]; inducer 2 μg/ml, assayed 48 hr later, no inducer = 100) was 7.90 ± 1.2%. The “PI concentration at which PIT/PPIR is fully induced” value [2] was less than 10 ng/mL, the “PI concentration at which PIT/PPIR is repressed (lowest SEAP expression)” value [2] was greater than 500 ng/mL and the “PI concentration window in which gene expression can be adjusted” value [2] was 10 to 500 ng/mL.
